Assay results from patent US12064482B2, “Triplet-triplet energy transfer with light excitation at long wavelengths and methods thereof” (THE UNIVERSITY OF HONG KONG, priority 2018, dated 2024).

What was measured:
[1] = Photocleavage of BODIPY-CAB and photorelease of CAB in solution, determined by HPLC; type: physicochemical
Text: FIG. 4. HPLC spectra of CAB (10^−4 M), PtTPBP (10^−5 M), BODIPY-CAB (10^−4 M), BODIPY-CAB (10^−4 M) with 530 nm irradiation (44 mW/cm^2) for 15 s under N2 atmosphere, the mixture of BODIPY-CAB (10^−4 M) and PtTPBP (10^−5 M) with 625 nm irradiation (44 mW/cm^2) for 15 s under N2 atmosphere, the mixture of BODIPY-CAB (10^−4 M) and PtTPBP (10^−5 M) without irradiation under N2 atmosphere, and BODIPY-CAB (10^−4 M) with 625 nm irradiation (44 mW/cm^2) for 15 s under N2 atmosphere. The detection wavelength was 260 nm. A small amount of toluene, whose peak was located at ˜8.7 min, was used to increase the solubility of PtTPBP. The yellow arrows indicate the signal of CAB; the red arrows indicate the signal of BODIPY-CAB; and the green arrows indicate the signal of PtTPBP.
FIG. 5. Photocleavage rate of the prodrug (BODIPY-CAB), as determined by HPLC (detected at 540 nm), after irradiation with 625 nm LED light at 44 mW/cm^2. The mixed solution of BODIPY-CAB (10^−4 M) and PtTPBP (10^−5 M, […] or 0 M) was protected under nitrogen (N2) or exposed in the air, and then irradiated for different time periods in the mixed solvents of dichloromethane (DCM) and methanol (1:9, v/v). The solution (50 μL) was then analyzed by HPLC to measure the concentration of BODIPY-CAB. Data are means±SD, n=3.
FIG. 6. Photorelease of the free drug (CAB), as determined by HPLC (detected at 260 nm), after irradiation with 625 nm LED light at 44 mW/cm^2. The mixed solution of BODIPY-CAB (10^−4 M) and PtTPBP ([…], 5×10^−6 M, 10^−6 M or 0 M) was protected under nitrogen (N2) or exposed in the air, and then irradiated for different time periods in the mixed solvents of dichloromethane (DCM) and methanol (1:9, v/v). The solution (50 μL) was then analyzed by HPLC to measure the concentration of CAB. Data are means f SD, n=3.
The intermediates and the final product were characterized by proton nuclear magnetic resonance (^1H NMR) spectra (FIG. 12-FIG. 15). The absorption and emission peaks of BODIPY-CAB were located at the wavelength of 543 nm and 567 nm, respectively (FIG. 3). To confirm whether the BODIPY prodrug could be sensitized by PtTPBP and could further be cleaved to release the drug, high performance liquid chromatography (HPLC) was utilized to monitor the generation of CAB. […] After addition of photosensitizer PtTPBP, the mixture solution of PtTPBP and BODIPY-CAB was irradiated with 625 nm light for 15 sec.
Furthermore, the photocleavage of BODIPY-CAB was investigated with different ratios of BODIPY-CAB and PtTPBP upon 625 nm light irradiation. […] When the concentration of photosensitizer was decreased, the photocleavage of BODIPY-CAB slowed down. […] Moreover, as O2 can quench the triplet excited state of PtTPBP, the prodrug cannot be cleaved efficiently in the presence of O2.

[2] = literature ref. [10]; cited from earlier work

CC1=C(I)C(C)=[N+]2C1=C(COC(=O)CCCc1ccc(N(CCCl)CCCl)cc1)c1c(C)c(I)c(C)n1[B-]2(C)C [BODIPY-CAB]
generation of CAB (HPLC) ([1]; 530 nm (44 mW/cm^2), 15 s, no photosensitizer, N2): leads to the release of CAB
generation of CAB (HPLC) ([1]; 625 nm (44 mW/cm^2), 15 s, with PtTPBP, N2): new peak located at ˜11.2 min was appeared
generation of CAB (HPLC) ([1]; 625 nm, 15 s, in the absence of PtTPBP, N2): did not generate CAB
rate of photocleavage and photorelease ([1]; 625 nm, with PtTPBP, in the air atmosphere (O2)): dramatically deceased rate of photocleavage and photorelease
prodrug remained in the solution ([1]; BODIPY-CAB:PtTPBP 100:1, 625 nm LED 44 mW/cm^2, 30 s, N2): 59.6%
photocleavage of the prodrug ([1]; BODIPY-CAB:PtTPBP 100:10, 625 nm LED 44 mW/cm^2, 15 s, N2): almost cleaved completely
free drug CAB released ([1]; BODIPY-CAB:PtTPBP 100:10, 625 nm LED 44 mW/cm^2, 15 s, N2, DCM/methanol 1:9): 41.7%
generation of CAB (HPLC) ([1]; mixture with PtTPBP not irradiated, N2): did not generate CAB

[Pt+2].c1ccc(-c2c3nc(c(-c4ccccc4)c4[n-]c(c(-c5ccccc5)c5nc(c(-c6ccccc6)c6[n-]c2c2ccccc62)-c2ccccc2-5)c2ccccc42)-c2ccccc2-3)cc1 [PtTPBP, platinum (II) tetraphenyltetrabenzoporphyrin]
cytotoxicity [2]: minimal
